Earlier results in patent US7265145B2, “Substituted piperidines and pyrrolidines as calcium sensing receptor modulators and method” (Bristol-Myers Squibb Company, priority 2003, dated 2007).

Columns and labels:
[1] = postmenopausal women; placebo-controlled trial
[2] = OVX rats; oral administration; in the presence of an anti-resorptive agent
[3] = intravenous bolus injection

Row | Compound | reduce the risk of non-traumatic, non-spine fractures [1] | reduce the risk of spine fractures [1] | bone mass [2] | serum PTH [3]
1 | PTH peptide fragment (1-34): PTH peptide fragment (1-34) of parathyroid hormone, stimulator of bone formation (SVSEIQLMHNLGKHLNSMERVEWLRKKLQDVHNF; Parathyroid hormone; UniProt P01270 32-65, looked up, fragment) | 54% | 65% | – | –
2 | CC(C)(Cc1ccc2ccccc2c1)NC[C@@H](O)COc1cccc(Cl)c1C#N [NPS-2143] | – | – | increase in bone mass | transient increase in serum PTH
